Experimental findings from patent US5140009A (Tap Pharmaceuticals, Inc., priority 1990, dated 1992) are described below.

Numbered stars: 1 amine (or outer) side, 2 acyl side, 3 side chain; on linkers, the order of the positions; unused ones are H or OH. Square brackets hold non-standard residues; d marks the D form. Peptide text beside a SMILES is read from it. * marks the point of attachment. Propanoyl(3-indol-3-yl) = O=C(CCc1c[nH]c2ccccc12)*; Phenylacetyl(4-CF3) = O=C(Cc1ccc(C(F)(F)F)cc1)*; Propanoyl(3-(4-F-phenyl)) = O=C(CCc1ccc(F)cc1)*; Acryloyl(3-(pyridin-3-yl)) = O=C(C=Cc1cccnc1)*; Hydrocinnamoyl(2,4-F2) = O=C(CCc1ccc(F)cc1F)*; Acetyl(1-naphthyl) = O=C(Cc1cccc2ccccc12)*; 1Nal = N[C@@H](Cc1cccc2ccccc12)C(=O)O; d1Nal = N[C@H](Cc1cccc2ccccc12)C(=O)O; d2Nal = N[C@H](Cc1ccc2ccccc2c1)C(=O)O; Lys(iPr) = CC(C)NCCCC[C@H](N)C(=O)O; NMeY = CN[C@@H](Cc1ccc(O)cc1)C(=O)O; dCha = N[C@H](CC1CCCCC1)C(=O)O; Nicotinoyl = O=C(c1cccnc1)*; X3 = O=C(CCc1ccc2ccccc2c1)*; Morpholide = C1CN(*)CCO1; CO = O=C([*:1])[*:2]; Bn = c1ccc(C*)cc1

The target of the first experiment is T1, LHRH receptors (Rattus norvegicus, UniProt P30969).
T1 construct: Pituitary membranes containing LHRH receptors are prepared in batches from quick-frozen rat pituitaries; tissue Hilltop Labs; host or cells: rat pituitary membranes
T1 sequence (P30969 1-327): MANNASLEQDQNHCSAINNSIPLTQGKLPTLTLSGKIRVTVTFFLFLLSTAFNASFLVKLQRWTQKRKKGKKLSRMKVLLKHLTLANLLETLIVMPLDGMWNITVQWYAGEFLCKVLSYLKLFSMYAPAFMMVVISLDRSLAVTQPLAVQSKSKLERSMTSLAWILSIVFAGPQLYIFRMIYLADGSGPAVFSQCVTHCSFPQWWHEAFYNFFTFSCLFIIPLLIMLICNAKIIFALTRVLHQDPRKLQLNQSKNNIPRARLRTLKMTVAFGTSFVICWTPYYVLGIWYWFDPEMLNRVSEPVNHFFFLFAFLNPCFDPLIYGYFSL
The experiment in a line: Receptor Binding (radioligand receptor binding assay). The following applies: table 3; rat pituitary membranes, radioiodinated [D-Leu^6 -des Gly^10 ]-LHRH ethyl amide 50 pM, 2 hours at 4° C.; read-out: Receptor Binding pkI (converted).
Turning to `CCNC(=O)[C@@H]1CCCN1C(=O)[C@H](CCCN=C(N)N)NC(=O)[C@H](CC(C)C)NC(=O)[C@@H](Cc1c[nH]c2ccccc12)NC(=O)[C@H](Cc1ccc(O)cc1)NC(=O)[C@H](CO)NC(=O)[C@@H](Cc1c[nH]c2ccccc12)NC(=O)CCc1ccc(F)cc1F` [Compound 90, (3-9)[N-(3-(2,4-Difluorophenyl)propionyl) -D-Trp^3,6 -Pro^9 NHEt]LHRH] ({Hydrocinnamoyl(2,4-F2)}-[dW]SY[dW]LRP-NHEt), the Ki was 31.6 pM.
Same read-out and setting: as for `CCNC(=O)[C@@H]1CCCN1C(=O)[C@H](CCCNC(=N)N)NC(=O)[C@H](CC(C)C)NC(=O)[C@@H](Cc1c[nH]c2ccccc12)NC(=O)[C@H](Cc1ccc(O)cc1)NC(=O)[C@H](CO)NC(=O)C=Cc1cccnc1` [Compound 43, (4-9)[N-(3-(3-Pyridyl)acryloyl)-Ser^4 -D-Trp^6 -Pro^9 -NHEt]LHRH] ({Acryloyl(3-(pyridin-3-yl))}-SY[dW]LRP-NHEt), the figure is 646000 pM; as for `CCNC(=O)[C@@H]1CCCN1C(=O)[C@H](CCCNC(=N)N)NC(=O)[C@H](CC(C)C)NC(=O)[C@@H](CCCNC(=N)N)NC(=O)[C@H](Cc1ccc(O)cc1)NC(=O)[C@H](CO)NC(=O)CCc1c[nH]c2ccccc12` [Compound 35, (4-9)[N-(3-(3-Indole)propionyl)-Ser^4 -D-Arg^6 -Pro^9 -NHEt]LHRH] ({Propanoyl(3-indol-3-yl)}-SY[dR]LRP-NHEt), 204000 pM; as for `CCNC(=O)[C@@H]1CCCN1C(=O)[C@H](CCCNC(=N)N)NC(=O)[C@H](CC(C)C)NC(=O)[C@@H](Cc1c[nH]c2ccccc12)NC(=O)[C@H](Cc1ccc(O)cc1)NC(=O)[C@H](CO)NC(=O)[C@H](Cc1c[nH]c2ccccc12)NC(=O)[C@H](Cc1ccccc1)NC(=O)CCc1ccc2ccccc2c1` [Compound 133, N-3-(2-Naphthyl)propionyl-Phe-Trp-Ser-Tyr-D-Trp-Leu-Arg -Pro-NHEt] (X3-FWSY[dW]LRP-NHEt), 1450 pM.
Consider `CCNC(=O)[C@@H]1CCCN1C(=O)[C@H](CCCN=C(N)N)NC(=O)[C@H](CC(C)C)NC(=O)[C@@H](Cc1c[nH]c2ccccc12)NC(=O)[C@H](Cc1ccc(O)cc1)NC(=O)[C@H](CO)NC(=O)CCc1c[nH]c2ccccc12` [Compound 24, (4-9)[N-(3-(3-Indole)propionyl)-Ser^4 -D-Trp^6 -Pro^9 -NHEt] LHRH] ({Propanoyl(3-indol-3-yl)}-SY[dW]LRP-NHEt), for which the Ki was 3720 pM.
The same measure, in the same setting: as for `CCNC(=O)[C@@H]1CCCN1C(=O)[C@H](CCCNC(=N)N)NC(=O)[C@H](CC(C)C)NC(=O)[C@H](Cc1c[nH]c2ccccc12)NC(=O)[C@H](Cc1ccc(O)cc1)NC(=O)[C@H](CO)NC(=O)[C@H](Cc1c[nH]c2ccccc12)NC(=O)Cc1ccc(C(F)(F)F)cc1` [Compound 106, (3-9)[N-(4-Trifluoromethylphenyl)acetyl -Trp^3,6 -Pro^9 NHEt]LHRH] ({Phenylacetyl(4-CF3)}-WSYWLRP-NHEt), the figure is 851 pM.
On the same count and under the same terms, as for `CCNC(=O)[C@@H]1CCCN1C(=O)[C@H](CCCNC(=N)N)NC(=O)[C@H](CC(C)C)NC(=O)[C@@H](CCCNC(=N)N)NC(=O)[C@H](Cc1ccc(O)cc1)NC(=O)[C@H](COCc1ccccc1)NC(=O)Cc1cccc2ccccc12` [Compound 38, (4-9)[N-(1-Naphthylacetyl)-Ser^4 (OBzl)-D-Arg^6 -Pro^9 -NHEt]LHRH] ({Acetyl(1-naphthyl)}-S(Bn)Y[dR]LRP-NHEt), the figure is 28800 pM; as for `CCNC(=O)[C@@H]1CCCN1C(=O)[C@H](CCCNC(=N)N)NC(=O)[C@H](CC(C)C)NC(=O)[C@@H](CCC(N)=O)NC(=O)[C@H](Cc1ccc(O)cc1)NC(=O)[C@H](CO)NC(=O)CCc1c[nH]c2ccccc12` [Compound 50, (4-9)[N-(3-(3-Indole)propionyl)-Ser^4 -D-Gln^6 -Pro^9 -NHEt]LHRH] ({Propanoyl(3-indol-3-yl)}-SY[dQ]LRP-NHEt), 166000 pM.

The same experiment, now with this note: table 4; rat pituitary membranes, radioligand 50 pM, 2 hours at 4° C.; read-out: Receptor Binding pkI (converted).
On to `CC(C)C[C@H](NC(=O)[C@@H](Cc1c[nH]c2ccccc12)NC(=O)[C@H](Cc1ccc(O)cc1)NC(=O)[C@H](CO)NC(=O)[C@H](Cc1c[nH]c2ccccc12)NC(=O)[C@H](Cc1cccc2ccccc12)NC(=O)N1CCOCC1)C(=O)N[C@@H](CCCNC(=N)N)C(=O)N1CCC[C@H]1C(=O)N[C@H](C)C(N)=O` [Compound 223, (2-10)[N-(alpha-Morpholinocarbonyl)-1-Nal^2 -D-Trp^6 -D-Ala^10]LHRH] ({Morpholide-CO}-[1Nal]WSY[dW]LRP[dA]-NH2), for which the Ki was 26.9 pM.
On the same count and under the same terms, as for `CC(C)C[C@H](NC(=O)[C@@H](Cc1c[nH]c2ccccc12)NC(=O)[C@H](Cc1ccc(O)cc1)N(C)C(=O)[C@H](CO)NC(=O)[C@@H](Cc1c[nH]c2ccccc12)NC(=O)[C@@H](Cc1cccc2ccccc12)NC(=O)N1CCOCC1)C(=O)N[C@@H](CCCNC(=N)N)C(=O)N1CCC[C@H]1C(=O)N[C@H](C)C(N)=O` [Compound 220, (2-10)[N-(alpha-Morpholinocarbonyl)-D-1-Nal^2 -D-Trp^3,6 -NMeTyr^5 -D-Ala^10]LHRH] ({Morpholide-CO}-[d1Nal][dW]S[NMeY][dW]LRP[dA]-NH2), the figure is 170 pM.
Still for that read-out and setting: as for `CC(C)C[C@H](NC(=O)[C@@H](CCCCNC(=O)c1cccnc1)NC(=O)[C@H](Cc1ccc(O)cc1)N(C)C(=O)[C@H](CO)NC(=O)[C@@H](CC1CCCCC1)NC(=O)CCc1ccc(F)cc1)C(=O)N[C@@H](CCCCNC(C)C)C(=O)N1CCC[C@H]1C(=O)N[C@H](C)C(N)=O` [Compound 254, (3-10)[N-(3-(4-Fluorophenyl)propionyl)-D-Cha^3 -NMeTyr^5 -D-Lys^6 (N-epsilon-nicotinyl)-Lys^8 (N-epsilon-isopropyl)-D-Ala^10]LHRH] ({Propanoyl(3-(4-F-phenyl))}-[dCha]S[NMeY][dK](Nicotinoyl)L[Lys(iPr)]P[dA]-NH2), the figure is 12 pM; as for `CCNC(=O)N[C@@H](Cc1ccccc1)C(=O)N[C@H](Cc1cccc2ccccc12)C(=O)N[C@@H](CO)C(=O)N[C@@H](Cc1ccc(O)cc1)C(=O)N[C@H](Cc1c[nH]c2ccccc12)C(=O)N[C@@H](CC(C)C)C(=O)N[C@@H](CCCNC(=N)N)C(=O)N1CCC[C@H]1C(=O)NCC` [Compound 238, (2-9)[N-(alpha-Ethylaminocarbonyl)-Phe^2 -D-1-Nal^3 -D-Trp^6 -Pro^9 NHEt]LHRH] ({NHEt-CO}-F[d1Nal]SY[dW]LRP-NHEt), 251 pM; as for `CC(C)C[C@H](NC(=O)[C@@H](CO)NC(=O)[C@H](Cc1ccc(O)cc1)N(C)C(=O)[C@H](CO)NC(=O)[C@H](Cc1cccc2ccccc12)NC(=O)CCc1ccc(F)cc1)C(=O)N[C@@H](CCCNC(=N)N)C(=O)N1CCC[C@H]1C(=O)N[C@H](C)C(N)=O` [Compound 180, (3-10)[N-(3-(4-Fluorophenyl)propionyl)-1-Nal^3 -NMeTyr^5 -D-Ser^6 -D-Ala^10]LHRH] ({Propanoyl(3-(4-F-phenyl))}-[1Nal]S[NMeY][dS]LRP[dA]-NH2), 5.5 pM.
On to `CC(C)C[C@H](NC(=O)[C@@H](CCCCNC(=O)c1cccnc1)NC(=O)[C@H](Cc1ccc(O)cc1)N(C)C(=O)[C@H](CO)NC(=O)[C@@H](Cc1ccc2ccccc2c1)NC(=O)CCc1ccc(F)cc1)C(=O)N[C@@H](CCCNC(=N)N)C(=O)N1CCC[C@H]1C(=O)N[C@H](C)C(N)=O` [Compound 187, (3-10)[N-(3-(4-Fluorophenyl)propionyl)-D-2-Nal^3 -NMeTyr^5 -D-Lys^6 (N-epsilon-nicotinyl)-D-Ala^10]LHRH] ({Propanoyl(3-(4-F-phenyl))}-[d2Nal]S[NMeY][dK](Nicotinoyl)LRP[dA]-NH2), for which the Ki is 22.4 pM.
